Laboratory results from patent US20110280913A1, “Methods and Compositions for Delivering Therapeutic Agents in the Treatment of B-Cell Related Disorders” (THE OHIO STATE UNIVERSITY, priority 2008, published 2011).

How the values were obtained:
CLL cells = test: Apoptosis of CLL cells with lenalidomide alone; assay type: cell-based, human; settings: 0.5 μM lenalidomide, 48 or 72 hours
Method: CLL B cells were isolated by Ficoll centrifugation using Rosette-Sep reagent (StemCell Technologies, Vancouver, BC) according to the manufacturer's instructions. CLL cells were incubated in RPMI 1640 medium supplemented with 10% heat-inactivated human serum (Valley Biomedical, Winchester, Va.), 2 mM L-glutamine (Invitrogen, Carlsbad, Calif.), and 100 U/mL penicillin/100 μg/mL streptomycin (Sigma-Aldrich, St Louis, Mo.) at 37° C. in 5% CO2.
In addition, samples with no treatment or crosslinker alone were collected at matched time points. […]
Cytotoxicity results were expressed as percentage of total positive cells over untreated control [% positive cells=(% annexin^+ and/or PI^+ cells of treatment group)−(% annexin^+ and/or PI^+ cells of untreated control)].

CD23 = test: Immunophenotyping (flow cytometry) of CD23 on CLL cells; assay type: cell-based, human; settings: 0.5 μM, 48 h, vs vehicle, n=6, P=0.001
Method: (§1) Immunophenotyping was performed to determine the percentage and mean fluorescence intensity of CD20, CD19, CD5, CD23, CD38, CD3, and CD52 on CLL cells relative to a specific isotype control. Cells (10^6) were washed in PBS, stained with fluorochrome-labeled antibodies at 4° C., then rinsed in PBS and analyzed by flow cytometry (EPICS-XL; Beckman Coulter, Fullerton, Calif.). A total of 10,000 events were collected and analyzed using Windows Multiple Document Interface for Flow Cytometry (WinMDI). CD20, CD19, CD3, CD5, CD23, and CD38 antibodies were obtained from BD Biosciences (San Jose, Calif.), and CD52 antibody was obtained from Serotec (Raleigh, N.C.).

CD52 = test: Immunophenotyping (flow cytometry) of CD52 on CLL cells; assay type: cell-based, human; settings: 0.5 μM, vs vehicle, data not shown
Method: as §1

CD20 mRNA = test: Real-time RT-PCR of CD20 mRNA in CLL cells; assay type: cell-based, human; settings: 24 and 48 hours, compared with vehicle control
Method: RNA was extracted with TRIzol reagent (Invitrogen) according to the manufacturer's directions and converted to cDNA with the SuperScript First-Strand Synthesis System (Invitrogen). Real-time polymerase chain reaction was performed using custom-designed primers for CD20 (ID: Hs00544819_m1; Applied Biosystems, Foster City, Calif.) and an ABI Prism 7700 sequence detection system (Applied Biosystems). The expression of CD20 relative to an internal control gene was calculated by plotting the Ct (cycle number), and the average relative expression for each group was determined using the comparative method (2^−Ct).^24
The inventors herein then determined whether the mechanism by which lenalidomide down-regulates CD20 antigen was via decreased transcription. CD20 mRNA expression level was assessed by real-time reverse-transcribed polymerase chain reaction (RT-PCR) in lenalidomide- and vehicle-treated CLL cells at 24 and 48 hours.

CD20 [1] = test: Intracellular CD20 staining (flow cytometry); assay type: cell-based, human
Method: CLL cells were incubated with a molar excess of rituximab to saturate the binding of extracellular CD20. Cells were washed twice with PBS and then fixed and permeablilized using the Cytofix/Cytoperm Kit (BD Biosciences PharMingen, San Diego, Calif.) according to the manufacturer's recommendations. Cells were then incubated with CD20-phycoerythrin (PE) antibody, washed twice in PBS, and analyzed by flow cytometry. To ensure the specificity of the staining procedure, binding of IgG1-k isotype antibody was also measured.

CD20 [2] = test: Laser-scanning confocal microscopy of CD20 internalization; assay type: cell-based, human; settings: lenalidomide 48 h at 37° C.
Method: Binding and internalization of anti-CD20 in CLL cells were examined by laser scanning confocal microscopy. CLL cells were incubated with lenalidomide for 48 hours at 37° C. and then collected and washed twice with PBS followed by fixation with 2% paraformaldehyde. Cells were then attached on a slide glass using Cytospin (Thermo Electron, Waltham, Mass.) and permeablilized with cold acetone for 5 minutes. Before cell membrane and nucleus staining, cells were preincubated with 1% bovine serum albumin in PBS for 1 hour at room temperature to reduce nonspecific binding. Cells were incubated with 50 μg/mL concanavalin A (Invitrogen) for 5 minutes at room temperature to stain cell membrane and with 1 μg/mL DRAQ5TM (Biostatus, Leicestershire, United Kingdom) for 5 minutes at room temperature to stain nucleus. Finally, slides were rinsed twice with PBS and covered with glass for confocal microscopy observation. Green fluorescence of fluorescein isothiocyanate-CD20, red fluorescence of concanavalin A, and blue fluorescence of DRAQ5 were analyzed, and merged images were produced using Zeiss 510 META Laser Scanning Confocal Imaging Systems and LSM Image software (Carl Zeiss, Thornwood, N.Y.).

CD20 [3] = test: Immunoblot of total CD20 protein; assay type: cell-based, human; settings: 48 and 72 hours, relative to vehicle control
Method: Immunoblot assays were performed with the multiple antigen detection immunoblotting method as described previously.^23 Whole-cell lysates were prepared and stored in −80° C. Protein concentration was quantified by the bicinchoninic acid method (Pierce Chemical, Rockford, Ill.). Protein samples (50 μg) were separated by sodium dodecyl sulfate-polyacrylamide gel electrophoresis (12%) and transferred to 0.2-μm nitrocellulose membranes (Whatman Schleicher & Schuell, Keene, N.H.) and incubated with goat antihuman CD20 (Santa Cruz Biotechnology, Santa Cruz, Calif.) or rabbit antiactin (Cell Signaling Technology, Danvers, Mass.) antibodies. Horseradish peroxidase-conjugated goat anti-rabbit IgG (Bio-Rad, Hercules, Calif.) was used as secondary antibody Immune complexes were detected using chemiluminescent substrate (SuperSignal; Pierce Chemical).

NK cells = test: CD56 and CD16 surface expression on purified NK cells (flow); assay type: cell-based, human; settings: lenalidomide 72 hours
Method: FIG. 4B: Lenalidomide treatment increases percentage of CD56+/[…] cells. Negatively selected NK cells were incubated with Lenalidomide (0.5 μM) or vehicle control. CD56 and CD16 surface expression was analyzed by flow after 72 h of treatment. The graphs show, respectively, percentage change CD56+/CD16+ (left panel, N=12, p<0.01) and CD56−/CD16+ (right panel, N=12, p<0.005) double positive cells.
For ADCC experiments, CD56^+ and CD19^+ cells were negatively purified from whole blood obtained from either healthy volunteers or CLL subjects by magnetic-activated cell sorting according to the manufacturer's recommendations (MiniMACS; Miltenyi Biotec, Auburn, Calif.). The purity of enriched populations was always greater than 95% of the total yield as detected by CD19 and CD3 staining.

[4] = test system: B-cell lymphoma cell lines; settings: cited from earlier work

Nc1cccc2c1CN(C1CCC(=O)NC1=O)C2=O (centres unmarked) [lenalidomide]
apoptosis in vitro (CLL cells): no apoptosis | CD23 activation marker level on CLL cells (CD23): increased levels | CD52 expression on CLL cells (CD52): no changes | CD20 mRNA transcription (CD20 mRNA): very modest increase | CLL subject samples with reduction of CD20 antigen surface expression (CD20 [1]; after lenalidomide treatment): 6 of 8 | intracellular CD20 fluorescence (CD20 [1]; compared with vehicle-treated controls, P=0.006): increased intracellular fluorescence | CD20 internalization in CLL cells (CD20 [2]): actively internalized | total level of CD20 protein (CD20 [3]): no variation | percentage of CDC16+/CD56− cells (NK cells; N=12, P<0.005 (vehicle 35% ±13%)): 20% ±11% | percentage of CD16+/CD56+ cells (NK cells; N=12, P<0.01 (vehicle 18% ±10%)): 31% ±14% | CD20 surface antigen expression [4]: without affecting
